# US20120245029A1, “NOVEL PHOSPH(ON)ATE- AND SULF(ON)ATE-BASED PHOSPHATE MODIFIED NUCLEOSIDES USEFUL AS SUBSTRATES FOR POLYMERASES AND AS ANTIVIRAL AGENTS” (priority 2009, published 2012)
# Tests used:
# Type in all cases: biochemical
# Taq DNA polymerase = Taq DNA polymerase (Thermus aquaticus, UniProt P19821); assay: Single nucleotide incorporation using Taq DNA polymerase; details: P1T1
# Method: 3-phosphono-L-Ala-dAMP (3) was tested as a substrate for Taq DNA polymerase (data in FIG. 5).
# HIV-1 RT [1] = biological target: T1, HIV-1 RT (Human immunodeficiency virus type 1 group M subtype B, UniProt P04585); assay: Elongation of primer P1 directed by template T2 by HIV-1 RT; details: P1T2; for P+7 product: 60 min
# T1 construct: HIV-1 Reverse Transcriptase serves, in the HIV-1 viral replication process, as catalyst; purchased Ambion
# Method: (§1) DNA polymerase reactions: end-labeled primer was annealed to its template by combining primer and template in a molar ratio of 1:2 and heating the mixture to 70° C. for 10 minutes followed by slow cooling to room temperature over a period of 1.5 hour. For the incorporation of a modified nucleoside, a series of 20 μL-batch reactions was performed with the enzyme HIV-1 RT (Ambion, 10 U/μL stock soln, specific activity 8.095 Wring, concentration 1.2 mg/mL). The final mixture contained 125 nM primer template complex, RT buffer (250 mM Tris.HCl, 250 mM KCl, 50 mM MgCl2, 2.5 mM spermidine, 50 mM dithiothreitol (DTT); pH 8.3), 0.025 U/μL HIV-1 RT, and different concentrations of the phosphoramidate to be tested (1 mM, 500 μM, 200 μM and 100 μM).
# (§2) Electrophoresis: all polymerase reaction aliquots (2.5 μL) were quenched by the addition of 10 μL of loading buffer (90% formamide, 0.05% bromophenol blue, 0.05% xylene cyanol and 50 mM ethylenediaminetetraacetic acid (EDTA)). Samples were heated at 85° C. for 5 minutes prior to analysis by electrophoresis for 2.5 hours at 2000 V on a 30 cm×40 cm×0.4 mm 20% (19:1 mono:bis) denaturing gel in the presence of a 100 mM Tris-borate, 2.5 mM EDTA buffer; pH 8.3. Products were visualized by phosphorimaging. The amount of radioactivity in the bands corresponding to the products of enzymatic reactions was determined by using the imaging device Cyclone@ and the Optiquant image analysis software (Perkin Elmer).
# In order to further investigate the potentiality of the leaving groups of this invention, L-Cys-dAMP (2) and 3-phosphono-L-Ala-dAMP (3) were tested in the template dependent incorporation of more than one phosphoramidate nucleotides by HIV-1 RT (FIG. 4). For this purpose, Primer P1 and template T2 containing an overhang of seven thymidine residues and four nucleobases (GGAC) at the 3′-end were used.
# In order to investigate the strand elongation capacity of compound 2, a template dependent incorporation of more than one nucleotide experiment was carried out. In this experiment HIV-1 RT and P1T2 duplex, where seven thymidine bases overhang of the template is flanked by four non-thymidine units at the 3′-end were used. A range of concentration of the building block was incubated with the primer-template complex and 0.025 U/μL of enzyme at the appropriate temperature, samples were quenched after 15, 30, 60, 90 and 120 minutes respectively and analyzed by 20% polyacrylamide gel electrophoresis.
# HIV-1 RT [2] = biological target: T1, HIV-1 RT; assay: Gel-based single nucleotide incorporation assay by HIV-1 RT (primer-template P1T1)
# HIV-1 RT [3] = biological target: T1, HIV-1 RT; assay: as above; details: for % of P + 1 / % of P + 2: P1T1 125 nM
# Method: as §1, §2
# Here, the ability of phosphoramidate analogues as substrate for HIV-1 RT was investigated by the gel-based single nucleotide incorporation assay. The natural nucleoside triphosphate (dATP) was used as reference.
# The ability of HIV-1 reverse transcriptase to incorporate phosphoramidate analogues 2-6 was analysed by gel-based single-nucleotide-incorporation assays using the primer-template complex P1T1.
# HIV-1 RT [4] = biological target: T1, HIV-1 RT; assay: Steady-state kinetics of single nucleotide incorporation by HIV-1 RT
# Method: The efficiency of incorporation by HIV-1 RT of 3-phosphono-L-Ala-dAMP (3) was investigated by determination of the kinetic parameters Km and Vmax. The steady-state kinetics assay was carried out as follows. The reaction was started by adding HIV-1 RT to P1-T1 complex, buffer, 3-phosphono-L-Ala-dAMP (3) and dATP. The final mixture (20 μL) contained 0.025 U/μL HIV-1 RT, buffer, 125 nM primer-template complex, and various concentrations 3-phosphono-L-Ala-dAMP and dATP. The range of concentrations for phosphoamidates was optimized according to a Km value for the incorporation of an individual nucleotide. In the case of HIV-1 RT, reaction mixtures containing the enzyme in concentration (0.025 U/μL) to attain 5-25% conversion and appropriate substrate concentration (0.5-100 μM used for 3-phosphono-L-Ala-dAMP (3) and 0.1-10 μM used for dATP) were incubated at 37° C. and run for 8-10 different time intervals (2-20 minutes). The incorporation velocities were calculated based on the percentage of single-nucleotide extension product (P+1 band). The kinetic parameters (Vmax and Km) were determined by plotting V (nM/min) versus substrate concentration (μM) and fitting the data point to a nonlinear Michaelis-Menten regression using GraphPad Prism software.
# [5] = P1T1 125 nM, HIV-1 RT 0.025 U/μL, 37° C.
# Chain of Taq DNA polymerase (P19821 whole entry): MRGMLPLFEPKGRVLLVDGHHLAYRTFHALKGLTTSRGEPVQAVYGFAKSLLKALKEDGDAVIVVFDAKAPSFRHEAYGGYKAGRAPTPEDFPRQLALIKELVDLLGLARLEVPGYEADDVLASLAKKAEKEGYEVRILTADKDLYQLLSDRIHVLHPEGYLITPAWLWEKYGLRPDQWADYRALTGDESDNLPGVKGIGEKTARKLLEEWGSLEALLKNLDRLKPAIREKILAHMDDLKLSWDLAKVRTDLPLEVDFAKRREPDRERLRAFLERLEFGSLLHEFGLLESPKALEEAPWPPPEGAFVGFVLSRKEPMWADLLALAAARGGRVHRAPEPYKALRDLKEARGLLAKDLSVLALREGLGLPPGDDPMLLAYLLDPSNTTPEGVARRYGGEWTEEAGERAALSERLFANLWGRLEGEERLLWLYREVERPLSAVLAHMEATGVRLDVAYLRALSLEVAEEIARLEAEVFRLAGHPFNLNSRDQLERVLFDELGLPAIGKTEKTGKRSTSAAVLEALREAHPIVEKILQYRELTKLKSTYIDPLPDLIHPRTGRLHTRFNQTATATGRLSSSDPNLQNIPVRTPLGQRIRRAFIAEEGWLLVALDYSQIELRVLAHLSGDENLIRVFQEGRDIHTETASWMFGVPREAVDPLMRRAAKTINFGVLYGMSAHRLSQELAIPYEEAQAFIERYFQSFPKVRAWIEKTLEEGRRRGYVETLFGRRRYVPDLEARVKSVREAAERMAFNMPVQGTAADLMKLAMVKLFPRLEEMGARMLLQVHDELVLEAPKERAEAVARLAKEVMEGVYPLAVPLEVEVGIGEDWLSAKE
compound,measurement,setting,value
"Nc1ncnc2c1ncn2[C@H]1C[C@H](O)[C@@H](COP(=O)(O)N[C@@H](CP(=O)(O)O)C(=O)O)O1 [Compound 3, 2′-deoxyadenosine-5′-(3-phosphono-L-alanine) phosphoramidate]",incorporation and primer extension by Taq DNA polymerase (in words),Taq DNA polymerase,less active than HIV-1 RT
same,primer extension products (in words),HIV-1 RT [1]; 50 μM and 100 μM substrate,only extended a primer with two and three adenine nucleobases
same,P+7 product,HIV-1 RT [1]; 200 μM substrate,7.1%
same,P+7 product,HIV-1 RT [1]; 500 μM substrate,15.9%
same,P+7 product,HIV-1 RT [1]; 1 mM substrate,23.8%
same,incorporation activity relative to natural dATP,HIV-1 RT [1],less active than the natural dATP
same,misincorporation (P+8),HIV-1 RT [1],did not result in any misincorporation
same,Incorporation (conversion to a P+1 strand),HIV-1 RT [2]; 10 μM substrate,27.1%
same,% of P + 1,"HIV-1 RT [2]; 50 μM substrate, 10 min, P1T1 125 nM",84.5%
same,substrate quality for HIV-1 RT (in words),HIV-1 RT [2]; among phosphoramidate analogues 1-5,best incorporation efficiency
same,% of P + 1,"HIV-1 RT [3]; 50 μM substrate, 20 min",89.9%
same,% of P + 1,"HIV-1 RT [3]; 50 μM substrate, 30 min",92.6%
same,% of P + 1,"HIV-1 RT [3]; 50 μM substrate, 60 min",94.6%
same,% of P + 1,"HIV-1 RT [3]; 50 μM substrate, 120 min",95.9%
same,% of P + 1,"HIV-1 RT [3]; 100 μM substrate, 10 min",94.8%
same,% of P + 1,"HIV-1 RT [3]; 100 μM substrate, 20 min",97.7%
same,% of P + 1,"HIV-1 RT [3]; 100 μM substrate, 30 min",97.6%
same,% of P + 1,"HIV-1 RT [3]; 100 μM substrate, 60 min",97.9%
same,% of P + 1,"HIV-1 RT [3]; 100 μM substrate, 120 min",97.5%
same,% of P + 1,"HIV-1 RT [3]; 200 μM substrate, 10 min",91.7%
same,% of P + 2,"HIV-1 RT [3]; 200 μM substrate, 10 min",3.0%
same,% of P + 1,"HIV-1 RT [3]; 200 μM substrate, 20 min",93.8%
same,% of P + 2,"HIV-1 RT [3]; 200 μM substrate, 20 min",3.4%
same,% of P + 1,"HIV-1 RT [3]; 200 μM substrate, 30 min",93.7%
same,% of P + 2,"HIV-1 RT [3]; 200 μM substrate, 30 min",3.6%
same,% of P + 1,"HIV-1 RT [3]; 200 μM substrate, 60 min",93.0%
same,% of P + 2,"HIV-1 RT [3]; 200 μM substrate, 60 min",4.3%
same,% of P + 1,"HIV-1 RT [3]; 200 μM substrate, 120 min",94.2%
same,% of P + 2,"HIV-1 RT [3]; 200 μM substrate, 120 min",3.6%
same,% of P + 1,"HIV-1 RT [3]; 500 μM substrate, 10 min",88.8%
same,% of P + 2,"HIV-1 RT [3]; 500 μM substrate, 10 min",7.5%
same,% of P + 1,"HIV-1 RT [3]; 500 μM substrate, 20 min",88.4%
same,% of P + 2,"HIV-1 RT [3]; 500 μM substrate, 20 min",9.6%
same,% of P + 1,"HIV-1 RT [3]; 500 μM substrate, 30 min",86.9%
same,% of P + 2,"HIV-1 RT [3]; 500 μM substrate, 30 min",11.1%
same,% of P + 1,"HIV-1 RT [3]; 500 μM substrate, 60 min",87.0%
same,% of P + 2,"HIV-1 RT [3]; 500 μM substrate, 60 min",11.2%
same,% of P + 1,"HIV-1 RT [3]; 500 μM substrate, 120 min",87.0%
same,% of P + 2,"HIV-1 RT [3]; 500 μM substrate, 120 min",11.5%
same,% of P + 1,"HIV-1 RT [3]; 1 mM substrate, 10 min",80.6%
same,% of P + 2,"HIV-1 RT [3]; 1 mM substrate, 10 min",16.7%
same,% of P + 1,"HIV-1 RT [3]; 1 mM substrate, 20 min",73.7%
same,% of P + 2,"HIV-1 RT [3]; 1 mM substrate, 20 min",23.7%
same,% of P + 1,"HIV-1 RT [3]; 1 mM substrate, 30 min",75.9%
same,% of P + 2,"HIV-1 RT [3]; 1 mM substrate, 30 min",22.1%
same,% of P + 1,"HIV-1 RT [3]; 1 mM substrate, 60 min",76.3%
same,% of P + 2,"HIV-1 RT [3]; 1 mM substrate, 60 min",21.9%
same,% of P + 1,"HIV-1 RT [3]; 1 mM substrate, 120 min",76.4%
same,% of P + 2,"HIV-1 RT [3]; 1 mM substrate, 120 min",21.7%
same,fold more efficient incorporation compared with L-Cys-dAMP (2),HIV-1 RT [3]; HIV-1 RT single nucleotide incorporation,10.7 fold
same,Km fold higher than the natural substrate dATP,HIV-1 RT [4],15 fold
same,Vmax fold lower than dATP,HIV-1 RT [4],1.7 fold
same,Km,HIV-1 RT [4]; [5],14.3 ± 3.78 µM
same,Vmax,HIV-1 RT [4]; [5],19.21 ± 1.58 nM/min
